Like-named read-outs stand apart in the source and are kept apart here.
Columns and labels:
[1] = biological target: T1, FL-SMARCA2 (full-length human SMARCA2 isoform 1) (Homo sapiens, UniProt P51531); assay: SMARCA2 ATPase activity assay (ADP-Glo, chicken mononucleosome substrate); assay type: biochemical; details: ATPase assay, enzyme 5 nM, ATP 250 uM, chicken mononucleosome 10 nM, 30 min preincubation
T1 construct: FLAG tag (YKDDDDK) (C); made in house; host or cells: Sf21 insect cells (baculovirus, pFastBacI)

A549 cells = assay: High-throughput proliferation (HTP) assay for A549 cells (CellTiter-Glo, 7 days); assay type: cell-based; details: Homo sapiens, 168 h, read-out: A549 SMARCA2 IC50
Procedure, shortened: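 Seven-day growth of A549 (62.5 cells/well, F12K with 10% HI-FBS, 37° C.) with compound, read by CellTiter-Glo ATP luminescence. Percent inhibition scaled between DMSO wells and 10 μM Doxorubicin wells, then fitted for EC50 and IC50.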

H358 cells = assay: High-throughput proliferation (HTP) assay for H358 cells (CellTiter-Glo, 7 days); assay type: cell-based; details: Homo sapiens, NCI-H358, 168 h, read-out: H358 SMARCA2 IC50
Procedure, shortened: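 Cells were plated at 1,000 cells/well in RPMI 1640 + 10% HI-FBS + 1% pen/strep on pre-dispensed compound and incubated 7 days at 37 °C, 5% CO2. Viability was read as ATP luminescence with CellTiter-Glo after 30 min at RT. DMSO served as 0% and 10 µM doxorubicin as 100% inhibition for EC50/IC50.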

FL-SMARCA4 = FL-SMARCA4 (Homo sapiens, UniProt P51532); assay: SMARCA4 ATPase activity assay (ADP-Glo, chicken mononucleosome substrate)
[2] = FL-SMARCA4 IC>50, Table 3c.2, ATPase assay, enzyme 5 nM, ATP 250 uM, chicken mononucleosome 10 nM, 30 min preincubation
[3] = Table 3d.1, read-out: FL-SMARCA2 IC>50
[4] = FL-SMARCA4 IC50, Table 3.2, ATPase assay, enzyme 5 nM, ATP 250 uM, chicken mononucleosome 10 nM, 30 min preincubation

FL-SMARCA4, sequence (P51532 whole entry): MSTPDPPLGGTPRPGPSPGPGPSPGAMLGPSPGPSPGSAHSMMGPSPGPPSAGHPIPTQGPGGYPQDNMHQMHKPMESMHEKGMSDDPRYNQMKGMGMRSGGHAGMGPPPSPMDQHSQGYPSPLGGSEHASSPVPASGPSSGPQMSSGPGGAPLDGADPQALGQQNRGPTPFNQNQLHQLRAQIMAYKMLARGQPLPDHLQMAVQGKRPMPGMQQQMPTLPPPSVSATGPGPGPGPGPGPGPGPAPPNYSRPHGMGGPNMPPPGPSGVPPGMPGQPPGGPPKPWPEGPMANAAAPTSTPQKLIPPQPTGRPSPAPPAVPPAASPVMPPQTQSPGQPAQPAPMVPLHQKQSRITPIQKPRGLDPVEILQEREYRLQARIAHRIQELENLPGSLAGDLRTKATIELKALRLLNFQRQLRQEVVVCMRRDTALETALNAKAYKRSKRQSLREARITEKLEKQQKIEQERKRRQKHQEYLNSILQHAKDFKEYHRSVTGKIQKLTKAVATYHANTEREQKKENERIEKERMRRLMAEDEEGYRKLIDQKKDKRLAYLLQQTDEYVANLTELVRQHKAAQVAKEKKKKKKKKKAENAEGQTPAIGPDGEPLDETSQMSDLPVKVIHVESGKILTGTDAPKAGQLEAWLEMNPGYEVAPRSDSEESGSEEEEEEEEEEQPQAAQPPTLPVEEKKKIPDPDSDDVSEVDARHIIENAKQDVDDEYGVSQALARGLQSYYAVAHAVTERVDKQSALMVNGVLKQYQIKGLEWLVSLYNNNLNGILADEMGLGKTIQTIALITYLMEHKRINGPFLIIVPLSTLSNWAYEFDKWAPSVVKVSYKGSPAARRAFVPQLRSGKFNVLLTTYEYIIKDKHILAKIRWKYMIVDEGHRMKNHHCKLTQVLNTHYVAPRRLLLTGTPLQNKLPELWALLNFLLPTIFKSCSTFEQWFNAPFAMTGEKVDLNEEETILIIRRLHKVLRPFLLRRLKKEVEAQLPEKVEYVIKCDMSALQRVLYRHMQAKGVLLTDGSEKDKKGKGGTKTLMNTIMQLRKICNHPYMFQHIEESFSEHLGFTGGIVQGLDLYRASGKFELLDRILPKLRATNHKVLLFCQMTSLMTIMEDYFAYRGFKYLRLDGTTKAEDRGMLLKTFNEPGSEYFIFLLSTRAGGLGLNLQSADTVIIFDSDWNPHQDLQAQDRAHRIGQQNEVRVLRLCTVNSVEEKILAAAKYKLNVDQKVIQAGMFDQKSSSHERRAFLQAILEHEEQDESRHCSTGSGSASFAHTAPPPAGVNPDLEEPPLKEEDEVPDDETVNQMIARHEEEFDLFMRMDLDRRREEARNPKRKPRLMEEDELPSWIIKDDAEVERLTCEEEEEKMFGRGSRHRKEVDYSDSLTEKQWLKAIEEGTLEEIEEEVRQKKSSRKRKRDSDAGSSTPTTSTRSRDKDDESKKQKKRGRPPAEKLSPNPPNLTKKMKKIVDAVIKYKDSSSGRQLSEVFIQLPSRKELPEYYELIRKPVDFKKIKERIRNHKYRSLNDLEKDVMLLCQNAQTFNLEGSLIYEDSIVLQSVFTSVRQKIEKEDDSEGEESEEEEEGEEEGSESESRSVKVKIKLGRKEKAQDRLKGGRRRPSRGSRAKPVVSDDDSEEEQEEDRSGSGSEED
T1 sequence (P51531 with tags, fused parts or gaps): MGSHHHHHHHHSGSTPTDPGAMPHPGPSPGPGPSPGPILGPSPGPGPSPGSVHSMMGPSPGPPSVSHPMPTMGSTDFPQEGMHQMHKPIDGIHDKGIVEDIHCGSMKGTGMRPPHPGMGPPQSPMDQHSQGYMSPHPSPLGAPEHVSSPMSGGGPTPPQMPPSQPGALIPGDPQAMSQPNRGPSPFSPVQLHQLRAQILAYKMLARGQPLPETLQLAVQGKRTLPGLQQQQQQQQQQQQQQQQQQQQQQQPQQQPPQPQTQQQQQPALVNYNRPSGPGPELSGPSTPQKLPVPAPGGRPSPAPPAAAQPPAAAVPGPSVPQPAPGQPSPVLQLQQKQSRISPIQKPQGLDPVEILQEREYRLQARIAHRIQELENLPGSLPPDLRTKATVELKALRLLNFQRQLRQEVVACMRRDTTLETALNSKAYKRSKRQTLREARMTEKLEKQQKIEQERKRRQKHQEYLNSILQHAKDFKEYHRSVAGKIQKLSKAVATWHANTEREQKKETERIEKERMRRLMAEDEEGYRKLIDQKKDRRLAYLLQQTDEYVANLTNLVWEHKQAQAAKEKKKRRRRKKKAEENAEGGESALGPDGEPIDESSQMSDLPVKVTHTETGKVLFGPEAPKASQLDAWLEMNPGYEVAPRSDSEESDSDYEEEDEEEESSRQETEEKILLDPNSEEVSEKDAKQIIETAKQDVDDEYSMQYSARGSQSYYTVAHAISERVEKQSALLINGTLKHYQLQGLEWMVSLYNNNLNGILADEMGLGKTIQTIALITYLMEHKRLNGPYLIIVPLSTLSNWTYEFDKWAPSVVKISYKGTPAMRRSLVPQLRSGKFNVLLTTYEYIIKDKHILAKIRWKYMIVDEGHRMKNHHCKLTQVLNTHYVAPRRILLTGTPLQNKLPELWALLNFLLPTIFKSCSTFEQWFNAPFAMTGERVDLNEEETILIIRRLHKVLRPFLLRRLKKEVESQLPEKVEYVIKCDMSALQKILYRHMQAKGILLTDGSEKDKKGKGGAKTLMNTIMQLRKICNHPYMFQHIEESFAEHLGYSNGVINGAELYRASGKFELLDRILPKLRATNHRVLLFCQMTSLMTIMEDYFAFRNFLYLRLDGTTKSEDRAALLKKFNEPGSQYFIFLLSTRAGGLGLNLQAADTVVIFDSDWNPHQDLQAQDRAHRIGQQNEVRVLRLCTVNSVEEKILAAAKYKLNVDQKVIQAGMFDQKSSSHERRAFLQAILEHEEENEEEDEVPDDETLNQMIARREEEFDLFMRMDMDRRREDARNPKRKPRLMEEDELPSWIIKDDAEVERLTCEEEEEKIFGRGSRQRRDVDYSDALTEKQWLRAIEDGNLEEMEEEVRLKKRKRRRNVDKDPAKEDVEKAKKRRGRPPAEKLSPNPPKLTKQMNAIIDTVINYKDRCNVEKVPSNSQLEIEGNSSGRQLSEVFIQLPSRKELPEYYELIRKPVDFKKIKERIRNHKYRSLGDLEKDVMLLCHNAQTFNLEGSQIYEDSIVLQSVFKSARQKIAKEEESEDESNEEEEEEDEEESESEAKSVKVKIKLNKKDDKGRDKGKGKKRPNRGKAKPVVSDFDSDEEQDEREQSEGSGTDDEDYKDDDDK

Row | IC50 ([1]; Table 3c.1) [nM] | IC50 (A549 cells) [nM] | IC50 (H358 cells) [nM] | IC50 (FL-SMARCA4; [2]) [nM] | IC50 [1, 3] [nM] | IC50 (FL-SMARCA4; FL-SMARCA4 IC50) [nM] | IC50 ([1]; Table 3.1) [nM] | IC50 (FL-SMARCA4; [4]) [nM] | SMILES
1 | 26.7 | 1510 | > 10000 | 86.7 | – | – | – | – | Cc1nc(C#Cc2cc(C(=O)Nc3cc(F)c(=O)n(CC(F)F)c3)sc2Cl)cs1 [Compound 61c]
2 | – | 9960 | > 10000 | – | 345 | 2140 | – | – | O=C(Nc1cc(F)c(=O)n(CC(F)F)c1)c1cc(-c2ccco2)c(Cl)s1 [Compound 112d]
3 | 78 | 1370 | > 10000 | 143 | – | – | – | – | Cc1ncc(C#Cc2cc(C(=O)Nc3cc(F)c(=O)n(CC(F)F)c3)sc2Cl)s1 [Compound 39c]
4 | – | 2380 | 4090 | – | 536 | 1260 | – | – | CN(C)C(=O)C#Cc1cc(C(=O)Nc2cc(F)c(=O)n(CC(F)F)c2)sc1Cl [Compound 71d]
5 | 9540 | > 10000 | > 10000 | 15300 | – | – | – | – | CN1CCn2cc(C#Cc3cc(C(=O)Nc4cc(F)c(=O)n(CC(F)F)c4)sc3Cl)nc2C1 [Compound 146c]
6 | – | 4330 | > 10000 | – | 197 | 655 | – | – | COc1cncc(C#Cc2cc(C(=O)Nc3cc(F)c(=O)n(CC(F)F)c3)sc2Cl)c1 [Compound 61d]
7 | – | 1330 | > 10000 | – | 18.8 | 58.7 | – | – | O=C(Nc1cc(F)c(=O)n(CC(F)F)c1)c1cc(C#C[C@H]2C[C@@H](CO)C2)c(Cl)s1 [Compound 134d]
8 | – | > 10000 | > 10000 | – | 978 | 4990 | – | – | N#Cc1cc(C(=O)Nc2cc(F)c(=O)n(CC(F)F)c2)sc1C1CC1 [Compound 87d]
9 | – | > 10000 | > 10000 | – | 2700 | 3380 | – | – | O=C(Nc1cc(F)c(=O)n(CC(F)F)c1)c1cc(C#Cc2ccn(-c3ccccn3)c(=O)c2)c(Cl)s1 [Compound 97d]
10 | – | 1960 | 9840 | – | 1690 | 4750 | – | – | O=C(Nc1cc(F)c(=O)n(CC(F)F)c1)c1cc(C#CC(=O)N2CCCC2)c(Cl)s1 [Compound 70d]
11 | – | 2120 | > 10000 | – | 14.6 | 37.2 | – | – | CNC(=O)c1ncc(C#Cc2cc(C(=O)Nc3cc(F)c(=O)n(CC(F)F)c3)sc2Cl)o1 [Compound 67d]
12 | 25300 | > 10000 | > 10000 | > 50000 | – | – | – | – | O=C(Nc1cc(F)c(=O)n(CC(F)F)c1)c1sc(C(F)(F)F)cc1Cl [Compound 48c]
13 | – | 2890 | > 10000 | – | 46.1 | 165 | – | – | O=C(Nc1cc(F)c(=O)n(CC(F)F)c1)c1cc(C#C[C@H]2C[C@H](CO)C2)c(Cl)s1 [Compound 133d]
14 | – | 4370 | > 10000 | – | 30 | 82 | – | – | N#Cc1sc(C(=O)Nc2cc(F)c(=O)n(CC(F)F)c2)cc1C#C[C@H]1C[C@H](O)C1 [Compound 104d]
15 | 92 | 1950 | > 10000 | 304 | – | – | – | – | Cc1cnc(C#Cc2cc(C(=O)Nc3cc(F)c(=O)n(CC(F)F)c3)sc2Cl)o1 [Compound 71c]
16 | – | > 10000 | > 10000 | – | 51.6 | 191 | – | – | CC(=O)NC1COCC(C#Cc2cc(C(=O)Nc3cc(F)c(=O)n(CC(F)F)c3)sc2Cl)C1 (stereo not drawn) [Compound 57d]
17 | – | > 10000 | > 10000 | – | 2360 | 7790 | – | – | Cn1ccc(C#Cc2cc(C(=O)Nc3cc(F)c(=O)n(CC(F)F)c3)sc2Cl)cc1=O [Compound 65d]
18 | 71.1 | > 10000 | > 10000 | 147 | – | – | – | – | CNC(=O)c1cc(C#Cc2cc(C(=O)Nc3cc(F)c(=O)n(CC(F)F)c3)sc2Cl)nn1C [Compound 154c]
19 | 236 | > 10000 | > 10000 | 772 | – | – | – | – | CN1CCn2c(C#Cc3cc(C(=O)Nc4cc(F)c(=O)n(CC(F)F)c4)sc3Cl)cnc2C1 [Compound 66c]
20 | 108 | 3300 | > 10000 | 287 | – | – | – | – | CS(=O)(=O)c1cccc(C#Cc2cc(C(=O)Nc3cc(F)c(=O)n(CC(F)F)c3)sc2Cl)c1 [Compound 98c]
21 | 33.3 | 2290 | > 10000 | 100 | – | – | – | – | Cc1cc(C#Cc2cc(C(=O)Nc3cc(F)c(=O)n(CC(F)F)c3)sc2Cl)on1 [Compound 63c]

Row | IC50 ([1]; Table 3c.1) [nM] | IC50 (A549 cells) [nM] | IC50 (H358 cells) [nM] | IC50 (FL-SMARCA4; [2]) [nM] | IC50 [1, 3] [nM] | IC50 (FL-SMARCA4; FL-SMARCA4 IC50) [nM] | IC50 ([1]; Table 3.1) [nM] | IC50 (FL-SMARCA4; [4]) [nM] | SMILES
22 | 34.5 | 4030 | > 10000 | 111 | – | – | – | – | O=C(Nc1cc(F)c(=O)n(CC(F)F)c1)c1cc(C#Cc2c[nH]cn2)c(Cl)s1 [Compound 113c]
23 | – | 9490 | > 10000 | – | – | – | 278 | 738 | C#Cc1cc(NC(=O)c2cc(F)c(Cl)s2)cn(CC(F)F)c1=O [Compound 342]
24 | 79.8 | 2010 | > 10000 | 198 | – | – | – | – | O=C(Nc1cc(F)c(=O)n(CC(F)F)c1)c1cc(C#Cc2ccccn2)c(Cl)s1 [Compound 81c]
25 | – | > 10000 | > 10000 | – | 165 | 518 | – | – | O=C1C[C@H](C#Cc2cc(C(=O)Nc3cc(F)c(=O)n(CC(F)F)c3)sc2Cl)CCN1 [Compound 63d]
26 | 8.12 | 909 | 3890 | 12.8 | – | – | – | – | N#Cc1sc(C(=O)Nc2cc(F)c(=O)n(CC(F)F)c2)cc1C#Cc1ccncc1 [Compound 134c]
27 | 120 | 2330 | > 10000 | 346 | – | – | – | – | Cc1sc(C(=O)Nc2cc(F)c(=O)n(CC(F)F)c2)cc1C#CC1COC1 [Compound 92c]
28 | – | 2220 | > 10000 | – | 41.9 | 85.2 | – | – | C[C@]1(C#Cc2cc(C(=O)Nc3cc(F)c(=O)n(CC(F)F)c3)sc2Cl)C[C@@H](O)C1 [Compound 136d]
29 | 90.9 | > 10000 | > 10000 | 239 | – | – | – | – | NC(=O)Cn1cc(C#Cc2cc(C(=O)Nc3cc(F)c(=O)n(CC(F)F)c3)sc2Cl)cn1 [Compound 120c]
30 | – | 7180 | > 10000 | – | 772 | 1770 | – | – | CN1CCCC(C#Cc2cc(C(=O)Nc3cc(F)c(=O)n(CC(F)F)c3)sc2Cl)C1 (stereo not drawn) [Compound 140d]
31 | 67.1 | 5910 | > 10000 | 121 | – | – | – | – | NC(=O)c1ccc(C#Cc2cc(C(=O)Nc3cc(F)c(=O)n(CC(F)F)c3)sc2Cl)cc1 [Compound 68c]
32 | 10.8 | 1080 | 7230 | 17.7 | – | – | – | – | Nc1cc(C#Cc2cc(C(=O)Nc3cc(F)c(=O)n(CC(F)F)c3)sc2Cl)ccn1 [Compound 124c]
33 | 98.3 | 1570 | > 10000 | 256 | – | – | – | – | O=C(Nc1cc(F)c(=O)n(CC(F)F)c1)c1cc(C#C[C@H]2CCOC2)c(Cl)s1 [Compound 78c]
34 | – | 1050 | > 10000 | – | 19.4 | 46.4 | – | – | N#Cc1sc(C(=O)Nc2cc(F)c(=O)n(CC(F)F)c2)cc1C#CC1CCOCC1 [Compound 102d]
35 | 482 | 9050 | > 10000 | 2490 | – | – | – | – | O=C(Nc1cc(F)c(=O)n(CC(F)F)c1)c1cc(C(F)(F)F)c(Cl)s1 [Compound 37c]
36 | 146 | 4250 | > 10000 | 432 | – | – | – | – | CN(C)Cc1ncc(C#Cc2cc(C(=O)Nc3cc(F)c(=O)n(CC(F)F)c3)sc2Cl)n1C [Compound 148c]
37 | – | 2090 | > 10000 | – | – | – | 75.7 | 448 | O=C(Nc1cc(F)c(=O)n(CC(F)F)c1)c1cnc(C(F)(F)F)s1 [Compound 297, N-(1-(2,2-difluoroethyl)-5-fluoro-6-oxo-1,6-dihydropyridin-3-yl)-2-(trifluoromethyl)thiazole-5-carboxamide]
38 | – | 4350 | 6240 | – | 6.06 | 8.53 | – | – | N#Cc1ncc(C#Cc2cc(C(=O)Nc3cc(F)c(=O)n(CC(F)F)c3)sc2Cl)o1 [Compound 100d]
39 | – | 4730 | > 10000 | – | 1360 | 8090 | – | – | Cc1cc(NC(=O)c2cc(Cl)c(C(F)(F)F)s2)cn(CC(F)F)c1=O [Compound 82d]
40 | – | 6680 | > 10000 | – | 195 | 244 | – | – | O=C(Nc1cc(F)c(=O)n(CC(F)F)c1)c1cc(C#CC2CCS(=O)(=O)CC2)c(Cl)s1 [Compound 99d]
41 | 471 | 3980 | > 10000 | 1070 | – | – | – | – | CN(C)CCn1cc(C#Cc2cc(C(=O)Nc3cc(F)c(=O)n(CC(F)F)c3)sc2Cl)cn1 [Compound 123c]
42 | – | 4440 | > 10000 | – | 38.1 | 97.3 | – | – | O=C(Nc1cc(F)c(=O)n(CC(F)F)c1)c1cc(C#Cc2ccc3cncn3c2)c(Cl)s1 [Compound 96d]

Reference: US20220356174A1, “PYRIDIN-2-ONE COMPOUNDS USEFUL AS SMARCA2 ANTAGONISTS” (Epizyme, Inc., priority 2018, published 2022)
